Consider 43 molecules from ChEMBL document CHEMBL6127128, “Discovery of the First-in-Class Dual-Target ROCK/HDAC Inhibitor with Potent Antitumor Efficacy in Vivo That Trigger Antitumor Immunity” (J Med Chem, 2024).

Molecules are shown by their SMILES. The source made the active and inactive calls. The rule behind the calls is not given here. Some results are limits rather than exact numbers.

The target of experiment [1] is Rho-associated protein kinase 2 (Homo sapiens, UniProt O75116). Description: Inhibition of N-terminal GST-tagged human recombinant wild type ROCK2 (1 to 553 residues) expressed in baculovirus-infected Sf21 cells by HTRF KinEASE assay. For orientation: TR-FRET usually uses a lanthanide donor and a delayed reading to cut background.
A further experiment has as its system MDA-MB-231. As to the kind of experiment: Cytotoxicity against human MDA-MB-231 cells assessed as reduction in cell viability incubated for 72 hrs by SRB assay. The format is functional, cell-based. The conditions noted are these: MDA-MB-231, 72 h. A general note: In SRB staining, fixed cells bind dye roughly in proportion to their protein.
Experiment [2] deals with 4T1. Description: Antitumor immunity against mouse 4T1 cells implanted in Balb/c mouse assessed as increase in CD3+ T cells in tumor tissue at 50 mg/kg, po administered daily for 15 days by flow cytometry. The format is functional, organism-based. Conditions: time 15.0 day.
In experiment [3] the test system is 4T1. Description: Antitumor immunity against mouse 4T1 cells implanted in Balb/c mouse assessed as increase in CD4+ T cells in tumor tissue at 50 mg/kg, po administered daily for 15 days by flow cytometry. The format is functional, organism-based. The conditions noted are these: time 15.0 day. A general note: Flow cytometry measures light scatter and fluorescence of single cells or particles in a stream.

The subject of experiment [4] is 4T1. As to the kind of experiment: Antitumor immunity against mouse 4T1 cells implanted in Balb/c mouse assessed as increase in CD8+ T cells in tumor tissue at 50 mg/kg, po administered daily for 15 days by flow cytometry. The class given is functional, organism-based. Conditions: time 15.0 day.
For experiment [5], the target named is Rho-associated protein kinase 1 (Homo sapiens, UniProt Q13464). As to the kind of experiment: Inhibition of N-terminal GST-tagged human recombinant ROCK1 (17 to 535 residues) expressed in baculovirus-infected Sf9 cells by HTRF KinEASE assay.
In experiment [6] the test system is 4T1. Description: Cytotoxicity against mouse 4T1 cells assessed as reduction in cell viability. The class given is functional, cell-based.

Chain of Rho-associated protein kinase 2 (O75116 whole entry, the tested form may be a part): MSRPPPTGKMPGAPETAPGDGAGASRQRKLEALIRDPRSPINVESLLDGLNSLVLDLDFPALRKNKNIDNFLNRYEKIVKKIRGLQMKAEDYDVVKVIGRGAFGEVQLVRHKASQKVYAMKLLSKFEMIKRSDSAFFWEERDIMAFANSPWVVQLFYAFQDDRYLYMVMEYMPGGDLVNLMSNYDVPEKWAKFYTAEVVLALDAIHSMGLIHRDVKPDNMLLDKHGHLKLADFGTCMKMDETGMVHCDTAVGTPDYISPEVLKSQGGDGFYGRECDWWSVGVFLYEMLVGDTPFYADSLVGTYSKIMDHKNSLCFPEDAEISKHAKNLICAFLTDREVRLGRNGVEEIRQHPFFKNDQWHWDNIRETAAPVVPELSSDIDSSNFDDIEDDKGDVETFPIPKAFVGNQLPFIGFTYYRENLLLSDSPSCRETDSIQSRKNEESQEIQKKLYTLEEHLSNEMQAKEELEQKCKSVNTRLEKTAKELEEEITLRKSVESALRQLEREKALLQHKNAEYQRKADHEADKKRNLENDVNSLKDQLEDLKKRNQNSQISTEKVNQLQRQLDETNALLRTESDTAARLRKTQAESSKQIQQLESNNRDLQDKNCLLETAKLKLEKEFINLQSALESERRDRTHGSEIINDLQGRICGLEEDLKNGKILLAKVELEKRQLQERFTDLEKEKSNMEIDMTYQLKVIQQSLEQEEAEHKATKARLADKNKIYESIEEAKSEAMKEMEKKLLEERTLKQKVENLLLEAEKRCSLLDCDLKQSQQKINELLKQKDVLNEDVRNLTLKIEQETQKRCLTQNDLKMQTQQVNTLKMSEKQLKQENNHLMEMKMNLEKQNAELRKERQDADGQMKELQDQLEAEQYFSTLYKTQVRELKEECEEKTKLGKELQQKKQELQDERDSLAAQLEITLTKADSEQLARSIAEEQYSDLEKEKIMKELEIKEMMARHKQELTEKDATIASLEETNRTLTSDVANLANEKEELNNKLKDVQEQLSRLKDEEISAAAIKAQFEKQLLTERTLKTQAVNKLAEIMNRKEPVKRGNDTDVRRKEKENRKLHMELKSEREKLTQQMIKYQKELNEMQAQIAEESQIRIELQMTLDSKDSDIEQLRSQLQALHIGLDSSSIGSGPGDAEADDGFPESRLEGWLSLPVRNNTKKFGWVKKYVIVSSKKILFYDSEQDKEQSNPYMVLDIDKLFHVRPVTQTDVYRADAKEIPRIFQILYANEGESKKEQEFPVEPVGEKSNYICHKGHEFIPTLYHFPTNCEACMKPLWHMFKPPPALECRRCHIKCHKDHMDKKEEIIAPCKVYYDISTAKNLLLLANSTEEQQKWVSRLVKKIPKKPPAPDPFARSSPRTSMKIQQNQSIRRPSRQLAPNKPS

A word on the IC50: it is the concentration needed to halve the response being measured. For `COc1cccc(CNC(=O)c2cc3cccc(-c4ccc5[nH]ncc5c4)c3s2)c1`, in experiment [1], the IC50 was above 1000 nM. With `COc1cccc(CNC(=O)c2cc3ccc(-c4ccc5[nH]ncc5c4)cc3s2)c1`, in experiment [1], the IC50 was above 1000 nM. `O=C(CCCCCNC(=O)c1cc2ccc(-c3cn[nH]c3)cc2s1)NO`: in the experiment with MDA-MB-231, the IC50 was above 10000 nM. `O=C(CCCCCNC(=O)c1cc2ccc(-c3ccncc3)cc2s1)NO`: the IC50 in the experiment with MDA-MB-231 is above 10000 nM.

Turning to `O=C(CCCCCCCNC(=O)c1cc2cccc(-c3cn[nH]c3)c2s1)NO`, in the experiment with MDA-MB-231, the IC50 was above 10000 nM.

Regarding `COc1cccc(CNC(=O)c2cc3c(-c4cn[nH]c4)cccc3s2)c1`, in experiment [1], the IC50 is above 1000 nM. Regarding `O=C(CCCCCCC(=O)Nc1ccccc1)NO` [VORINOSTAT], the IC50 with MDA-MB-231 stood at 660 nM. In addition, the outcome in the experiment with 4T1 [2], in the experiment with 4T1 [3] and with 4T1 [4] was Active. `COc1cccc(CNC(=O)c2cc3c(-c4ccc5[nH]ncc5c4)cccc3s2)c1`: the IC50 in experiment [1] is above 1000 nM. In the case of `COc1cccc(CNC(=O)c2cc3c(-c4ccncc4)cccc3s2)c1`, the IC50 in experiment [1] is above 1000 nM. In the case of `O=C(CCCCCCNC(=O)c1cc2cccc(-c3cn[nH]c3)c2s1)NO`, the IC50 in the experiment on MDA-MB-231 is 9050 nM. On to `COc1cccc(CNC(=O)c2cc3cc(-c4cn[nH]c4)ccc3s2)c1`, for which the “inhibition (active/inactive call)” value in experiment [5] was “Active”. The IC50 in experiment [1] worked out at 6.75 nM. With `O=C(CCCCCCCNC(=O)c1cc2cc(-c3cn[nH]c3)ccc2s1)NO`, the IC50 with MDA-MB-231 was determined as 6420 nM. For `COc1cccc(CNC(=O)c2cc3cc(-c4ccc5[nH]ncc5c4)ccc3s2)c1`, in experiment [1], the IC50 was above 1000 nM.

As to `O=C(CCCCCCNC(=O)c1cc2cccc(-c3ccncc3)c2s1)NO`, the IC50 in the experiment with MDA-MB-231 turned out to be 1540 nM. With `O=C(CCCCCCCNC(=O)c1cc2cc(-c3ccncc3)ccc2s1)NO`, the IC50 in experiment [5] was above 1000 nM; in experiment [1] it was above 1000 nM; with MDA-MB-231, 420 nM. Take `COc1cccc(CNC(=O)c2cc3cc(-c4cccc5cnccc45)ccc3s2)c1`: in experiment [1], the IC50 was above 1000 nM. For `O=C(CCCCCCNC(=O)c1cc2ccc(-c3cn[nH]c3)cc2s1)NO`, the IC50 in the experiment with MDA-MB-231 was found to be 1260 nM. In the case of `COc1cccc(CNC(=O)c2cc3ccc(-c4cccc5cnccc45)cc3s2)c1`, the IC50 in experiment [1] was above 1000 nM. With `COc1cccc(CN(CCN(C)C)C(=O)c2nc3ccc(-c4cn[nH]c4)cc3s2)c1`, in experiment [1], the IC50 was below 1 nM. Turning to `O=C(CCCCCNC(=O)c1cc2c(-c3cn[nH]c3)cccc2s1)NO`, in the experiment on MDA-MB-231, the IC50 was 3210 nM.

In the case of `O=C(CCCCCCCNC(=O)c1cc2ccc(-c3ccncc3)cc2s1)NO`, the IC50 in experiment [5] is above 1000 nM; in experiment [1] it was above 1000 nM; with MDA-MB-231, 460 nM.

Consider `O=C(CCCCCCNC(=O)c1cc2c(-c3cn[nH]c3)cccc2s1)NO`, for which, in the experiment with MDA-MB-231, the IC50 was above 10000 nM. Regarding `C[C@@H](N)[C@H]1CC[C@H](C(=O)Nc2ccncc2)CC1` [Y-27632], the IC50 in the experiment with MDA-MB-231 and with 4T1 [6] was above 10000 nM in each case. As to `O=C(CCCCCCNC(=O)c1cc2c(-c3ccncc3)cccc2s1)NO`, the IC50 with MDA-MB-231 is 2900 nM. As for `COc1cccc(CNC(=O)c2cc3ccc(-c4cn[nH]c4)cc3s2)c1`, the “inhibition (active/inactive call)” value in experiment [5] was “Active”. Further, the IC50 in experiment [1] is 7.94 nM. On to `O=C(CCCCCNC(=O)c1cc2cc(-c3cn[nH]c3)ccc2s1)NO`, for which the IC50 in the experiment on MDA-MB-231 is above 10000 nM. Consider `O=C(CCCCCCNC(=O)c1cc2ccc(-c3ccncc3)cc2s1)NO`, for which the IC50 in the experiment with MDA-MB-231 came to 950 nM. As to `COc1cccc(CNC(=O)c2cc3cccc(-c4cccc5cnccc45)c3s2)c1`, the IC50 in experiment [1] was above 1000 nM. As for `O=C(CCCCCNC(=O)c1cc2cc(-c3ccncc3)ccc2s1)NO`, the IC50 with MDA-MB-231 was above 10000 nM. Still for that read-out and setting: then `O=C(CCCCCNC(=O)c1cc2cccc(-c3ccncc3)c2s1)NO`, with above 10000 nM; and `O=C(CCCCCCCNC(=O)c1cc2c(-c3cn[nH]c3)cccc2s1)NO`, with above 10000 nM.

`O=C(CCCCCCNC(=O)c1cc2cc(-c3ccncc3)ccc2s1)NO`: the IC50 was above 1000 nM in experiment [5], above 1000 nM in experiment [1] and 130 nM in the experiment on MDA-MB-231. Consider `COc1cccc(CNC(=O)c2cc3ccc(-c4ccncc4)cc3s2)c1`, for which the “inhibition (active/inactive call)” value in experiment [5] is “Active”. In addition, the IC50 in experiment [1] came to 296 nM.

Turning to `COc1cccc(CNC(=O)c2cc3cccc(-c4ccncc4)c3s2)c1`, in experiment [1], the IC50 was above 1000 nM. Turning to `O=C(CCCCCCCNC(=O)c1cc2cccc(-c3ccncc3)c2s1)NO`, the IC50 with MDA-MB-231 is above 10000 nM. Same read-out and setting: then `O=C(CCCCCNC(=O)c1cc2c(-c3ccncc3)cccc2s1)NO`, with above 10000 nM; and `O=C(CCCCCNC(=O)c1cc2cccc(-c3cn[nH]c3)c2s1)NO`, with above 10000 nM. As for `O=C(CCCCCCCNC(=O)c1cc2c(-c3ccncc3)cccc2s1)NO`, the IC50 in the experiment on MDA-MB-231 is above 10000 nM.

With `COc1cccc(CNC(=O)c2cc3cccc(-c4cn[nH]c4)c3s2)c1`, in experiment [5], the “inhibition (active/inactive call)” value is “Active”. In experiment [1], the IC50 was determined as 225 nM. `CN[C@@H]1C[C@H](c2ccc3c(c2O)C(=O)c2c(C)sc(C(C)=O)c2C3=O)O[C@H](C)[C@H]1O`: the IC50 in experiment [1] is 8890 nM. On to `O=C(CCCCCCCNC(=O)c1cc2ccc(-c3cn[nH]c3)cc2s1)NO`, for which the IC50 in the experiment on MDA-MB-231 turned out to be 760 nM. Turning to `COc1cccc(CNC(=O)c2cc3c(-c4cccc5cnccc45)cccc3s2)c1`, the IC50 in experiment [1] was above 1000 nM. With `COc1cccc(CNC(=O)c2cc3cc(-c4ccncc4)ccc3s2)c1`, the IC50 in experiment [1] is above 1000 nM.
